Test results published in PubChem BioAssay AID248 (DTP/NCI, 2004).
“And” between values parts separate entries of the source, which are not always exact repeats. Equal values may be shown once. Inconclusive results and toxic doses are left out. Cut-off read from the data, not from the text of the source: active = T/C of 150% or more; inactive = T/C below 125%.

Test system: L1210 leukemia ip in BDF1 mice, survival T/C
Assay: NCI In Vivo Anticancer Drug Screen. Data for tumor model L1210 Leukemia (intraperitoneal) in B6D2F1 (BDF1) mice
Settings: endpoint: mean survival time, higher = longer survival
Summary of the method: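 In this screen, tumor-bearing mice given compound are compared to those given vehicle, and their survival values are reported as a treated-to-control quotient.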

[1] = dose: 100.0 mg/kg/injection, schedule: Q04DX002 (ip), vehicle: saline with Tween-80
[2] = dose: 200.0 mg/kg/injection, schedule: Q04DX002 (ip), vehicle: saline with Tween-80
[3] = dose: 400.0 mg/kg/injection, schedule: Q04DX002 (ip), vehicle: saline with Tween-80
[4] = dose: 100.0 mg/kg/injection, schedule: Q04DX003 (ip), vehicle: saline with Tween-80
[5] = dose: 200.0 mg/kg/injection, schedule: Q04DX003 (ip), vehicle: saline with Tween-80
[6] = dose: 400.0 mg/kg/injection, schedule: Q04DX003 (ip), vehicle: saline with Tween-80
[7] = dose: 100.0 mg/kg/injection, schedule: Q04DX002 (ip), vehicle: saline
[8] = dose: 200.0 mg/kg/injection, schedule: Q04DX002 (ip), vehicle: saline
[9] = dose: 400.0 mg/kg/injection, schedule: Q04DX002 (ip), vehicle: saline
[10] = dose: 100.0 mg/kg/injection, schedule: Q04DX003 (ip), vehicle: Klucel (hydroxypropylcellulose) (HPC)

Measured: T/C

CCNS(=O)(=O)c1cccc(C(=S)OCC)c1
inactive: dose: 100.0 mg/kg/injection, schedule: Q01DX001 (ip), vehicle: Klucel (hydroxypropylcellulose) (HPC) 105 % of control | dose: 200.0 mg/kg/injection, schedule: Q01DX001 (ip), vehicle: Klucel (hydroxypropylcellulose) (HPC) 101 % of control | dose: 400.0 mg/kg/injection, schedule: Q01DX001 (ip), vehicle: Klucel (hydroxypropylcellulose) (HPC) 108 % of control

CCC(C(=O)NC(=O)NOC)c1ccccc1 (stereo not given)
inactive: dose: 100.0 mg/kg/injection, schedule: Q01DX Z (ip), vehicle: methylcellulose (MC) 95 % of control | dose: 200.0 mg/kg/injection, schedule: Q01DX Z (ip), vehicle: methylcellulose (MC) 114 % of control | dose: 400.0 mg/kg/injection, schedule: Q01DX Z (ip), vehicle: methylcellulose (MC) 116 % of control

CN=C(NC)NN
inactive: dose: 30.0 mg/kg/injection, schedule: Q01DX Z (ip), vehicle: methylcellulose (MC) 100 % of control | dose: 60.0 mg/kg/injection, schedule: Q01DX Z (ip), vehicle: methylcellulose (MC) 103 % of control | [1] 95 % of control | dose: 125.0 mg/kg/injection, schedule: Q01DX Z (oral), vehicle: methylcellulose (MC) 101 % of control | [2] 95 % of control | dose: 240.0 mg/kg/injection, schedule: Q01DX Z (ip), vehicle: methylcellulose (MC) 108 % of control | dose: 250.0 mg/kg/injection, schedule: Q01DX Z (oral), vehicle: methylcellulose (MC) 95 % of control | dose: 270.0 mg/kg/injection, schedule: Q01DX Z (ip), vehicle: saline 105 % of control | dose: 375.0 mg/kg/injection, schedule: Q01DX Z (ip), vehicle: methylcellulose (MC) 110 % of control | [3] 100 % of control | dose: 405.0 mg/kg/injection, schedule: Q01DX Z (ip), vehicle: saline 97 % of control | dose: 480.0 mg/kg/injection, schedule: Q01DX Z (ip), vehicle: methylcellulose (MC) 102 % of control | dose: 609.0 mg/kg/injection, schedule: Q01DX Z (ip), vehicle: saline 103 % of control

Cc1c2oc3c(C)ccc(C(=O)OCCN4CCCC4)c3nc-2c(C(=O)OCCN2CCCC2)c(N)c1=O
inactive: [1] 98 % of control | [2] 106 % of control | [3] 98 % of control

CCOC(=O)c1cc(=O)[nH]c2ccc(OC)cc12
inactive: [4] 98 % of control | [5] 102 % of control | [6] 91 % of control

CC(=O)Oc1cc2c(cc1OC(C)=O)C(Br)CCCC2=O (stereo not given)
inactive: dose: 100.0 mg/kg/injection, schedule: Q01DX009 (ip), vehicle: other 96 % of control | dose: 100.0 mg/kg/injection, schedule: Q04DX003 (ip), vehicle: other 94 % of control | dose: 200.0 mg/kg/injection, schedule: Q01DX009 (ip), vehicle: other 93 % of control | dose: 200.0 mg/kg/injection, schedule: Q04DX003 (ip), vehicle: other 102 % of control | dose: 400.0 mg/kg/injection, schedule: Q01DX009 (ip), vehicle: other 104 % of control | dose: 400.0 mg/kg/injection, schedule: Q04DX003 (ip), vehicle: other 104 % of control

CC(=O)OC1CCC2(C)C(=CCC3C2CCC2(C)C3CC3C(c4ccccc4)=NN(c4ccccc4)C32C#N)C1 (stereo not given)
inactive: dose: 100.0 mg/kg/injection, schedule: Q04DX002 (ip), vehicle: Klucel (hydroxypropylcellulose) (HPC) 103 % of control | dose: 200.0 mg/kg/injection, schedule: Q04DX002 (ip), vehicle: Klucel (hydroxypropylcellulose) (HPC) 92 % of control | dose: 400.0 mg/kg/injection, schedule: Q04DX002 (ip), vehicle: Klucel (hydroxypropylcellulose) (HPC) 98 % of control

CCSC(=N)N
inactive: [7] 118 % of control | [8] 104 % of control | [9] 91 % of control

CN(C)S(=O)(=O)c1ccc(C=C(c2ccccc2)c2ccccc2)cc1
inactive: [10] 95 % of control | dose: 200.0 mg/kg/injection, schedule: Q04DX003 (ip), vehicle: Klucel (hydroxypropylcellulose) (HPC) 94 % of control | dose: 400.0 mg/kg/injection, schedule: Q04DX003 (ip), vehicle: Klucel (hydroxypropylcellulose) (HPC) 91 % of control

N=C(N)CC(=O)CC(=N)N
inactive: dose: 50.0 mg/kg/injection, schedule: Q01DX009 (ip), vehicle: saline 91 % of control | dose: 100.0 mg/kg/injection, schedule: Q01DX009 (ip), vehicle: saline 91 % of control | dose: 200.0 mg/kg/injection, schedule: Q01DX009 (ip), vehicle: saline 98 % of control

OC(Cc1cccc(=S)[nH]1)(c1ccccc1)c1ccccc1
inactive: dose: 100.0 mg/kg/injection, schedule: Q01DX001 (ip), vehicle: saline 98 % of control | dose: 200.0 mg/kg/injection, schedule: Q01DX001 (ip), vehicle: saline 93 % of control | dose: 400.0 mg/kg/injection, schedule: Q01DX001 (ip), vehicle: saline 91 % of control

Cc1c(Cl)cccc1NC(=O)N(C)Cc1ccccc1
inactive: dose: 50.0 mg/kg/injection, schedule: Q01DX009 (ip), vehicle: saline with Tween-80 109 % of control and 120 % of control | [1] 104 % of control and 110 % of control | [4] 97 % of control | [2] 100 % of control and 104 % of control | [5] 106 % of control | [3] 100 % of control and 103 % of control | [6] 101 % of control

CC(=O)N(C)c1cccc(C(=O)O)c1
inactive: [4] 98 % of control | [5] 94 % of control | [6] 98 % of control

C#CC1(OC(=O)Nc2cc3ccccc3o2)CCCCC1
inactive: [4] 90 % of control | [5] 95 % of control | [6] 92 % of control

CCC#CC(=O)OCCCCCC
inactive: [7] 107 % of control | [8] 100 % of control | [9] 103 % of control

CCCCCCCCC(=O)N1CCOCC1
inactive: dose: 4.68 mg/kg/injection, schedule: Q01DX009 (ip), vehicle: saline 97 % of control | dose: 9.37 mg/kg/injection, schedule: Q01DX009 (ip), vehicle: saline 97 % of control | dose: 12.5 mg/kg/injection, schedule: Q04DX003 (ip), vehicle: Klucel (hydroxypropylcellulose) (HPC) 99 % of control | dose: 18.75 mg/kg/injection, schedule: Q01DX009 (ip), vehicle: saline 97 % of control | dose: 25.0 mg/kg/injection, schedule: Q01DX009 (ip), vehicle: Klucel (hydroxypropylcellulose) (HPC) 104 % of control | dose: 25.0 mg/kg/injection, schedule: Q04DX003 (ip), vehicle: Klucel (hydroxypropylcellulose) (HPC) 103 % of control and 104 % of control | dose: 37.5 mg/kg/injection, schedule: Q01DX009 (ip), vehicle: saline 95 % of control | dose: 50.0 mg/kg/injection, schedule: Q01DX009 (ip), vehicle: Klucel (hydroxypropylcellulose) (HPC) 96 % of control | dose: 50.0 mg/kg/injection, schedule: Q04DX003 (ip), vehicle: Klucel (hydroxypropylcellulose) (HPC) 101 % of control | [10] 92 % of control

Cc1ccn2c(=O)c(CCBr)c(C)nc2c1
inactive: dose: 4.7 mg/kg/injection, schedule: Q01DX009 (ip), vehicle: saline 101 % of control | dose: 9.4 mg/kg/injection, schedule: Q01DX009 (ip), vehicle: saline 100 % of control | dose: 18.8 mg/kg/injection, schedule: Q01DX009 (ip), vehicle: saline 91 % of control | dose: 18.8 mg/kg/injection, schedule: Q04DX003 (ip), vehicle: saline 94 % of control

O=C(Nc1ccc(O)cc1)Sc1ccccc1
inactive: dose: 75.0 mg/kg/injection, schedule: Q01DX001 (ip), vehicle: gum acacia 107 % of control

N#C/C(=C\c1cccs1)c1ccc([N+](=O)[O-])cc1
inactive: dose: 100.0 mg/kg/injection, schedule: Q01DX009 (ip), vehicle: Klucel (hydroxypropylcellulose) (HPC) 96 % of control | dose: 200.0 mg/kg/injection, schedule: Q01DX009 (ip), vehicle: Klucel (hydroxypropylcellulose) (HPC) 86 % of control | dose: 400.0 mg/kg/injection, schedule: Q01DX009 (ip), vehicle: Klucel (hydroxypropylcellulose) (HPC) 91 % of control
